Molecules are shown by their SMILES.

The target in assay [1] is S. cerevisiae carbamylphosphate synthetase – aspartate transcarbamylase multifunctional protein (CPSase-ATCase complex) (Saccharomyces cerevisiae, UniProt P07259). The format is biochemical.
The target of assay [2] is S. cerevisiae carbamylphosphate synthetase – aspartate transcarbamylase multifunctional protein (CPSase-ATCase complex) (Saccharomyces cerevisiae, UniProt P07259, E2182K). The format is biochemical.
Chain of S. cerevisiae carbamylphosphate synthetase – aspartate transcarbamylase multifunctional protein (CPSase-ATCase complex) (Saccharomyces cerevisiae, UniProt P07259, E2182K) (P07259 2-2214 E2182K, one chain of several): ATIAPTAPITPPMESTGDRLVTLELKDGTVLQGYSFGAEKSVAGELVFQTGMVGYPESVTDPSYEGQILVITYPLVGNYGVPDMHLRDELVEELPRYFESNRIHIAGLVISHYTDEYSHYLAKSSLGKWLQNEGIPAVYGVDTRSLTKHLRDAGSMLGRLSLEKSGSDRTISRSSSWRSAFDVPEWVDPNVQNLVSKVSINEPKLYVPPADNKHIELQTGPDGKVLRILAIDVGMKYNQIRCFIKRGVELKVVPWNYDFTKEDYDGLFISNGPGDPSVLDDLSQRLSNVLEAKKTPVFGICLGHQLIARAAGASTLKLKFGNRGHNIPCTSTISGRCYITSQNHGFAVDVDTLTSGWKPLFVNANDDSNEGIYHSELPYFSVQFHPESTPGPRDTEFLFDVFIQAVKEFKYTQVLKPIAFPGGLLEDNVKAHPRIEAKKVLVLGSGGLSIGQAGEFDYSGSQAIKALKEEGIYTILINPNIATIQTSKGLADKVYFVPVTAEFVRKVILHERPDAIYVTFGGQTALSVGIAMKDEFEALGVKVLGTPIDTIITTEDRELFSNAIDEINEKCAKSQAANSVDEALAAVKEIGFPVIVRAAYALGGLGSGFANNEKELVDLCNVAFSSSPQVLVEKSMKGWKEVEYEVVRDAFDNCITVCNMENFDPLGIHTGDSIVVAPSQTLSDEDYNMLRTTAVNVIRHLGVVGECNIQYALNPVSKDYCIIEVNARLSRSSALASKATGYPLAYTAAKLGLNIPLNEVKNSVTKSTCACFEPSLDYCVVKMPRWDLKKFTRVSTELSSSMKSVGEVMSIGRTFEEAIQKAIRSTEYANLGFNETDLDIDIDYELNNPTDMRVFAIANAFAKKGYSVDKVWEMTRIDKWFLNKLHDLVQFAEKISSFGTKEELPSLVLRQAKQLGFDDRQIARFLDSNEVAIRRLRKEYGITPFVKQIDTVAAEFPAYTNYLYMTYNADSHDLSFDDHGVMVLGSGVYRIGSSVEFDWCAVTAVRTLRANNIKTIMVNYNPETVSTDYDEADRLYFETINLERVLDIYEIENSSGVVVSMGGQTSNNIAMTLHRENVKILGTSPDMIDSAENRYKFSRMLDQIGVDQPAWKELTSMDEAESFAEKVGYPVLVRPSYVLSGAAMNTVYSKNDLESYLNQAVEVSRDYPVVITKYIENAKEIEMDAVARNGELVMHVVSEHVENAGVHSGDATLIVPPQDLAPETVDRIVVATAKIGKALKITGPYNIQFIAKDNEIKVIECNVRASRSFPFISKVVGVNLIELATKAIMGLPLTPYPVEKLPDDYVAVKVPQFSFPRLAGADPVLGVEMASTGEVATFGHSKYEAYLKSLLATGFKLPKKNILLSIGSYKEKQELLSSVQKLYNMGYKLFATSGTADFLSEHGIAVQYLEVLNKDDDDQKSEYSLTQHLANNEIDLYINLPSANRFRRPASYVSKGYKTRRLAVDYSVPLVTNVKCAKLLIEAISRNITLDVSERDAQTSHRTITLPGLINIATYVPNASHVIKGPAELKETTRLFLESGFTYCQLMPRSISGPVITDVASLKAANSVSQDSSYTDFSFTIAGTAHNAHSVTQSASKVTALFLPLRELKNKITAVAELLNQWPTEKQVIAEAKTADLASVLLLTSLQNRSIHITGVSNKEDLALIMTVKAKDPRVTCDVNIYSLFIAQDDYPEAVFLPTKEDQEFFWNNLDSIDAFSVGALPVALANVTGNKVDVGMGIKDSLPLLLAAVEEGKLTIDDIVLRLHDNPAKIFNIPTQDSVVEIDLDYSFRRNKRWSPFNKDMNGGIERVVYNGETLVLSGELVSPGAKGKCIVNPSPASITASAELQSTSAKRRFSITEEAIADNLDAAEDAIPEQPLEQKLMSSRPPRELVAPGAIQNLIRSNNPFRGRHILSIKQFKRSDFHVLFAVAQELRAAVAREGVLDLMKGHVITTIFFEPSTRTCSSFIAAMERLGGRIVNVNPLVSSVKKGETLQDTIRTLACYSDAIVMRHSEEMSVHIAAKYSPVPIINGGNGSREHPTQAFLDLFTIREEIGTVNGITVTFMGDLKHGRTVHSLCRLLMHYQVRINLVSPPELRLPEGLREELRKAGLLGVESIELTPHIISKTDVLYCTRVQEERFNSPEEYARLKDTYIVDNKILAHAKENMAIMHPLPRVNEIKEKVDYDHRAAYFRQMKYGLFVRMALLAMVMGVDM

Chain of S. cerevisiae carbamylphosphate synthetase – aspartate transcarbamylase multifunctional protein (CPSase-ATCase complex) (Saccharomyces cerevisiae, UniProt P07259) (P07259 2-2214, one chain of several): as the sequence (P07259 2-2214 E2182K, one chain of several) above, with K2181E counted along it

Turning to `O=c1ccn([C@@H]2O[C@H](COP(=O)(O)OP(=O)(O)OP(=O)(O)O)[C@@H](O)[C@H]2O)c(=O)[nH]1` [UTP], the concentration for half-maximal inhibition (IC50) (usually the point on the concentration scale where inhibition reaches its midpoint) in assay [1] is 800 µM. In assay [2], the Ki – broadly, the equilibrium dissociation constant of an inhibitor or competing ligand from its target – is 3000 ± 1000 µM.

(Values after PMC434488 (BMC Biochemistry, 2004).)
